Data taken from patent US20070259914A1, “Novel Piperidine Derivates as Modulators of Chemokine Receptor Ccr5” (priority 2004, published 2007).
pIC50: −log10 of the molar value.

Biological target: recombinant human CCR5 receptor (Homo sapiens, UniProt P51681)
Assay: MIP-1α radioligand binding assay (scintillation proximity, CHO cell membranes)
Settings: displacement of 0.1 nM iodinated MIP-1α from membranes of Chinese hamster ovary cells expressing recombinant human CCR5; average if tested more than once
Protocol: The ability of compounds to inhibit the binding of MIP-1α was assessed by an in vitro radioligand binding assay. Membranes were prepared from Chinese hamster ovary cells which expressed the recombinant human CCR5 receptor. These membranes were incubated with 0.1 nM iodinated MIP-1α, scintillation proximity beads and various concentrations of the compounds of the invention in 96-well plates. The amount of iodinated MIP-1α bound to the receptor was determined by scintillation counting.
In Table II the results are presented as Pic50 values. […] If a as tested more than once then the data below is an average of the probative tests

Sequence of recombinant human CCR5 receptor (P51681 whole entry): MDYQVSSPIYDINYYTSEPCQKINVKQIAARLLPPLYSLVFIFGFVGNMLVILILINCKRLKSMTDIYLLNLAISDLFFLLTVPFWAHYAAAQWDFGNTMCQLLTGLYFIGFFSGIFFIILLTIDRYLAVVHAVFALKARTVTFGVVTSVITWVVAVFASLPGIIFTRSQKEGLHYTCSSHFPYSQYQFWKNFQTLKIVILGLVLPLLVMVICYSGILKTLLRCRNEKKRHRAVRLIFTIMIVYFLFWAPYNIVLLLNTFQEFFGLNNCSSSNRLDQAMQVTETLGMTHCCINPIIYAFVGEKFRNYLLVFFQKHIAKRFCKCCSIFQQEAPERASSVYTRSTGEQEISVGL

| pIC50 | SMILES |
| --- | --- |
| 8.80 | CS(=O)(=O)c1ccc(CC(=O)N(C2CC2)C2CCN(CC[C@@H](c3cc(F)cc(F)c3)C3CCN(S(C)(=O)=O)CC3)CC2)cc1 [Compound 4] |
| 9.30 | CCN(C(=O)NCc1ccc(S(C)(=O)=O)cc1)C1CCN(CC[C@@H](c2cc(F)cc(F)c2)C2CCN(S(C)(=O)=O)CC2)CC1 [Compound 2] |
| 8.45 | CCN(C(=O)Cc1ccc(S(C)(=O)=O)cc1)C1CCN(CC[C@@H](c2cccc(C(F)(F)F)c2)C2CCN(S(C)(=O)=O)CC2)CC1 [Compound 3] |
| 9.50 | CCN(C(=O)Cc1ccc(S(C)(=O)=O)cc1)C1CCN(CC[C@@H](c2cc(F)cc(F)c2)C2CCN(S(C)(=O)=O)CC2)CC1 [Compound 1, N-(1-{(3R)-3-(3,5-difluorophenyl)-3-[1-(methylsulfonyl)piperidin-4-yl]propyl}piperidin-4-yl)-N-ethyl-2-[4-(methylsulfonyl)phenyl]-acetamide] |
